Experimental data from US20130005747A1, “METHOD FOR SELECTING A CANCER THERAPY” (Cyclacel Limited, priority 2010, published 2013).

How the values were obtained:
Experiment in all cases: Fractional growth, 72 h seliciclib
Format in all cases: cell-based, human
PCI-6A = PCI-6A (Head & Neck), 15 μM seliciclib
Text: (§1) A total of 270 human cancer cell lines from diverse cancer histopathologic types were investigated.

AGS = AGS (Stomach), 15 μM seliciclib
Text: as §1

KYSE-450 = KYSE-450 (Esophagus), 15 μM seliciclib
Text: as §1

HT 1080 = HT 1080 (Miscellaneous), 15 μM seliciclib
Text: as §1

TCCSUP = TCCSUP (Bladder), 15 μM seliciclib
Text: as §1

769-P = 769-P (Kidney), 15 μM seliciclib
Text: as §1

PCI-15B = PCI-15B (Head & Neck), 15 μM seliciclib
Text: as §1

BT-20 = BT-20 (Breast), 15 μM seliciclib
Text: as §1

HCC1395 = HCC1395 (Breast), 15 μM seliciclib
Text: as §1

SK-OV-3 = SK-OV-3 (Ovary), 15 μM seliciclib
Text: as §1

UO-31 = UO-31 (Kidney), 15 μM seliciclib
Text: as §1

HSC-3 = HSC-3 (Head & Neck), 15 μM seliciclib
Text: as §1

EJ138 = EJ138 (Bladder), 15 μM seliciclib
Text: as §1

Hs 766T = Hs 766T (Pancreas), 15 μM seliciclib
Text: as §1

SW 48 = SW 48 (Intestine), 15 μM seliciclib
Text: as §1

NCI-H647 = NCI-H647 (Lung: NSCLC), 15 μM seliciclib
Text: as §1

NCI-H1915 = NCI-H1915 (Lung: NSCLC), 15 μM seliciclib
Text: as §1

BFTC-905 = BFTC-905 (Bladder), 15 μM seliciclib
Text: as §1

SCaBER = SCaBER (Bladder), 15 μM seliciclib
Text: as §1

CHSA8926 = CHSA8926 (Bone), 15 μM seliciclib
Text: as §1

MFE-280 = MFE-280 (Uterus), 15 μM seliciclib
Text: as §1

PC-3 = PC-3 (Prostate), 15 μM seliciclib
Text: as §1

NCI-H1581 = NCI-H1581 (Lung: NSCLC), 15 μM seliciclib
Text: as §1

SISO = SISO (Cervix), 15 μM seliciclib
Text: as §1

Detroit 562 = Detroit 562 (Head & Neck), 15 μM seliciclib
Text: as §1

NCI-H2172 = NCI-H2172 (Lung: NSCLC), 15 μM seliciclib
Text: as §1

DoTc2 4510 = DoTc2 4510 (Cervix), 15 μM seliciclib
Text: as §1

C-4 I = C-4 I (Cervix), 15 μM seliciclib
Text: as §1

MS751 = MS751 (Cervix), 15 μM seliciclib
Text: as §1

T98G = T98G (Brain), 15 μM seliciclib
Text: as §1

1A6 = 1A6 (Bladder), 15 μM seliciclib
Text: as §1

LU65A = LU65A (Lung: NSCLC), 15 μM seliciclib
Text: as §1

SNU-449 = SNU-449 (Liver), 15 μM seliciclib
Text: as §1

Lu-135 = Lu-135 (Lung), 15 μM seliciclib
Text: as §1

NCI-H1568 = NCI-H1568 (Lung: NSCLC), 15 μM seliciclib
Text: as §1

C32 = C32 (Skin), 15 μM seliciclib
Text: as §1

AN3CA = AN3CA (Uterus), 15 μM seliciclib
Text: as §1

Structure (SMILES): CC[C@H](CO)Nc1nc(NCc2ccccc2)c2ncn(C(C)C)c2n1 [seliciclib, roscovitine]
- Fractional Growth (PCI-6A): 0.5818
- Fractional Growth (AGS): 0.2157
- Fractional Growth (KYSE-450): 0.4067
- Fractional Growth (HT 1080): 0.2044
- Fractional Growth (TCCSUP): 0.6407
- Fractional Growth (769-P): 0.602
- Fractional Growth (PCI-15B): 0.2847
- Fractional Growth (BT-20): 0.7016
- Fractional Growth (HCC1395): 0.6999
- Fractional Growth (SK-OV-3): 0.7375
- Fractional Growth (UO-31): 0.3152
- Fractional Growth (HSC-3): 0.5223
- Fractional Growth (EJ138): 0.3103
- Fractional Growth (Hs 766T): 0.4284
- Fractional Growth (SW 48): 0.1123
- Fractional Growth (NCI-H647): 0.4521
- Fractional Growth (NCI-H1915): 0.4337
- Fractional Growth (BFTC-905): 0.4198
- Fractional Growth (SCaBER): 0.5642
- Fractional Growth (CHSA8926): 0.674
- Fractional Growth (MFE-280): 0.5959
- Fractional Growth (PC-3): 0.4021
- Fractional Growth (NCI-H1581): 0.7659
- Fractional Growth (SISO): 0.6424
- Fractional Growth (Detroit 562): 0.1846
- Fractional Growth (NCI-H2172): 0.6197
- Fractional Growth (DoTc2 4510): 0.6205
- Fractional Growth (C-4 I): 0.5067
- Fractional Growth (MS751): 0.3573
- Fractional Growth (T98G): 0.4404
- Fractional Growth (1A6): 0.6475
- Fractional Growth (LU65A): 0.4627
- Fractional Growth (SNU-449): 0.6309
- Fractional Growth (Lu-135): 0.2812
- Fractional Growth (NCI-H1568): 0.3317
- Fractional Growth (C32): 0.5391
- Fractional Growth (AN3CA): 0.2094
